Measurements published in US10782295B2, “Cysteine-reactive ligand discovery in proteomes” (THE SCRIPPS RESEARCH INSTITUTE, priority 2013, dated 2020).

Assays:
Assay in all cases: competitive isoTOP-ABPP, MDA-MB-231 soluble proteome
Type in all cases: binding
IDH1 = biological target: T1, IDH1 (Homo sapiens, UniProt O75874); conditions: 100 μM LDE, 60 min; peptide SEGGFIWAC*K
T1 construct: directly in native proteomes; endogenous in cells; host or cells: MDA-MB-231
Protocol: (§1) Here, we envisioned that isoTOP-ABPP could be advanced to discover and quantify reactions between cysteines in proteomes and any electrophilic compound. In this advanced, ‘competitive’ version of isoTOP-ABPP (FIG. 1a), a proteome is treated with an electrophile (experimental sample) or DMSO (control sample). Both proteomic samples are then labeled with the IA probe and conjugated by CuAAC to light and heavy azide-biotin tags, respectively. The light and heavy samples are then mixed and subjected to our described isoTOP-ABPP protocol for enrichment, identification, and quantification of IA-labeled cysteines^30. Electrophile-modified cysteines are quantified by measuring the MS1 chromatographic peak ratios (R values) for heavy (DMSO-treated) over light (electrophile-treated) samples, with higher R values reflecting greater sensitivity to the electrophile. In this format, competitive isoTOP-ABPP can assay electrophiles against 1000+ cysteines in parallel directly in native proteomes without requiring any chemical modification to the electrophiles themselves.
(§2) Competitive isoTOP-ABPP experiments were performed in quadruplicate using the soluble proteome of the human breast cancer cell line MDA-MB-231 cell line. Proteomes were treated with 100 μM HNE, 15d-PGJ2, or 2-HD, for 60 minutes, followed by the IA-probe (100 μM, 60 min) A total of ˜1400 cysteine reactivities were quantified across the aggregate data set, with at least 900 cysteine reactivities quantified for each LDE (FIG. 2a) more than 750 of which were quantified for all the three electrophiles.
(§3) HNE was purchased from EMD biosciences, 15d-PGJ2 was purchased from Cayman Chemicals and 2-HD was purchased from Santa Cruz Biotechnology. Proteome samples were diluted to a 4 mg protein/mL solution in PBS. For each profiling experiment, one aliquot of the proteome sample (0.5 mL) was treated with 100 μM of LDE using 5 μL of a 10 mM stock and the other aliquot was treated with 5 μL of either ethanol (for HNE and 15d-PGJ2) or DMSO (for 2-HD) as control. For the concentration-dependent profiling experiments using HNE, aliquots of the proteomes (0.5 mL each) were treated with 5, 10, 50, 100 and 500 μM of HNE using 5 μL of 0.5, 1.0, 5, 10 and 50 mM of stock solution, respectively. After 60 minutes of treatment at room temperature, both the LDE-treated and control aliquots were passed through a NAP-5 Sephadex column (GE healthcare) to remove any unreacted LDE. The volume of each aliquot was increased to 1 mL with the concentration at 2 mg/mL after this step.
(§4) Each of the control and LDE-treated proteome samples (˜2 mg protein/mL in 1 mL volume) was treated with 100 μM of IA-probe using 10 μL of a 10 mM stock in DMSO. The labeling reactions were incubated at room temperature for 1 hour. Click chemistry (acetylene-azide cycloaddition) was performed by the addition of 100 μM of either the Heavy-TEV-Tag (for the control sample) or Light-TEV-Tag (for the LDE-treated sample) (20 μL of a 5 mM stock), 1 mM TCEP (fresh 50× stock in water), 100 μM ligand (17× stock in DMSO:t-Butanol 1:4) and 1 mM CuSO4 (50× stock in water). Samples were allowed to react at room temperature for 1 hour. After the click chemistry step, the light and heavy-labeled samples were mixed together and centrifuged (5900×g, 4 min, 4° C.) to pellet the precipitated proteins.
(§5) The pellets were washed twice in cold MeOH, after which the pellet was solubilized in PBS containing 1.2% SDS via sonication and heating (5 min, 80° C.). Samples were subjected to streptavidin enrichment of probe-labeled proteins, sequential on-bead trypsin and TEV digestion, and liquid chromatography-mass spectrometry (LC-MS) analysis according to the published isoTOP-ABPP protocol^30.
(§6) IA-probe labeled peptides were identified by SEQUEST2 and DTASelect3, and the quantification of heavy/light ratios (isoTOP-ABPP ratios, R) was performed by an in-house software (CIMAGE) as previously described. […]

IFIT3 = biological target: T2, IFIT3 (Homo sapiens, UniProt O14879); conditions: 100 μM LDE, 60 min; peptide GLNPLNAYSDLAEFLETEC*YQTPFNK
T2 construct: directly in native proteomes; endogenous in cells; host or cells: MDA-MB-231
T2 sequence (O14879 1-490): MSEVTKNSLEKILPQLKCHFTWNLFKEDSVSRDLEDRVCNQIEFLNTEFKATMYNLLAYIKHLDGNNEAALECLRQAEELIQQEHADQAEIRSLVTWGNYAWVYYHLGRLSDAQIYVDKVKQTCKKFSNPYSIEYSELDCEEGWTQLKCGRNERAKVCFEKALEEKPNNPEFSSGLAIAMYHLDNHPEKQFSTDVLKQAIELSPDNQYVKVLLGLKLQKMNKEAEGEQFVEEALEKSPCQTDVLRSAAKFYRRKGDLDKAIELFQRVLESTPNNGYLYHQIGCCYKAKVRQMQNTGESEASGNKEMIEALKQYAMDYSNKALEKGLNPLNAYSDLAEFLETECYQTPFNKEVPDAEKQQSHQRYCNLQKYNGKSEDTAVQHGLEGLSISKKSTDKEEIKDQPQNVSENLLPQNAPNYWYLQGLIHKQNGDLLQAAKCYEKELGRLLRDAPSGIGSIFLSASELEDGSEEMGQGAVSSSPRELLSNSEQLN
Protocol: as §1, §2, §3, §4, §5, §6

PEC1 = biological target: T3, PEC1 (Homo sapiens, UniProt O75521); conditions: 100 μM LDE, 60 min; peptide WLSDEC*TNAVVNFLSR
T3 construct: directly in native proteomes; endogenous in cells; host or cells: MDA-MB-231
T3 sequence (O75521 39-394): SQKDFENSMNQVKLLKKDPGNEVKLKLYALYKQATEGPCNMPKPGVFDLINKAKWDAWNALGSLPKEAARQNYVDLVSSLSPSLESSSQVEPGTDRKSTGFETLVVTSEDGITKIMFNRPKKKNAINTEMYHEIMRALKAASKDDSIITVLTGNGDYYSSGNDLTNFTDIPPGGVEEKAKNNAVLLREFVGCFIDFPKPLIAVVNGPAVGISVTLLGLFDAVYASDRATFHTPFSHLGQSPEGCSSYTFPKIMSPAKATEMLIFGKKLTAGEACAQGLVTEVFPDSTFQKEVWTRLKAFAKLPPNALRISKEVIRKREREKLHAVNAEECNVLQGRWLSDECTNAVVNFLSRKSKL
Protocol: as §1, §2, §3, §4, §5, §6

REEP5 = biological target: T4, REEP5 (Homo sapiens, UniProt Q00765); conditions: 100 μM LDE, 60 min; peptide NC*MTDLLAK
T4 construct: directly in native proteomes; endogenous in cells; host or cells: MDA-MB-231
T4 sequence (Q00765 whole entry): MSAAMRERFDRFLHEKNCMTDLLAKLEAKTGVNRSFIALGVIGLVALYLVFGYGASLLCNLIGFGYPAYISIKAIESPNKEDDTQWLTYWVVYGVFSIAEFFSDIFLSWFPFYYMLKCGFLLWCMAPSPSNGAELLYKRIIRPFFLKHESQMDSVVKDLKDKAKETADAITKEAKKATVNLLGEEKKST
Protocol: as §1, §2, §3, §4, §5, §6

RPL24 = biological target: T5, RPL24 (Homo sapiens, UniProt P83731); conditions: 100 μM LDE, 60 min; peptide C*ESAFLSK
T5 construct: directly in native proteomes; endogenous in cells; host or cells: MDA-MB-231
Protocol: as §1, §2, §3, §4, §5, §6

WDR45L = biological target: T6, WDR45L (Homo sapiens, UniProt Q5MNZ6); conditions: 100 μM LDE, 60 min; peptide C*NYLALVGGGK
T6 construct: directly in native proteomes; endogenous in cells; host or cells: MDA-MB-231
T6 sequence (Q5MNZ6 whole entry): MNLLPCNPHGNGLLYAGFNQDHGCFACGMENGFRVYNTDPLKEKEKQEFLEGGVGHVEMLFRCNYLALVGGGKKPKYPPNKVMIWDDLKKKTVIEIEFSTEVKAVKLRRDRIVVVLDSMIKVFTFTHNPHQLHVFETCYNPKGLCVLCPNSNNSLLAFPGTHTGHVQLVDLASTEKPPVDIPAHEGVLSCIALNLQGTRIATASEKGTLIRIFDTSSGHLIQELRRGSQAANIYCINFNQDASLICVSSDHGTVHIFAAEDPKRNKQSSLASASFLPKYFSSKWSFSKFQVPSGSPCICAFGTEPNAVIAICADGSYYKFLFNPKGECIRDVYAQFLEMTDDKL
Protocol: as §1, §2, §3, §4, §5, §6

T1 sequence (O75874 whole entry): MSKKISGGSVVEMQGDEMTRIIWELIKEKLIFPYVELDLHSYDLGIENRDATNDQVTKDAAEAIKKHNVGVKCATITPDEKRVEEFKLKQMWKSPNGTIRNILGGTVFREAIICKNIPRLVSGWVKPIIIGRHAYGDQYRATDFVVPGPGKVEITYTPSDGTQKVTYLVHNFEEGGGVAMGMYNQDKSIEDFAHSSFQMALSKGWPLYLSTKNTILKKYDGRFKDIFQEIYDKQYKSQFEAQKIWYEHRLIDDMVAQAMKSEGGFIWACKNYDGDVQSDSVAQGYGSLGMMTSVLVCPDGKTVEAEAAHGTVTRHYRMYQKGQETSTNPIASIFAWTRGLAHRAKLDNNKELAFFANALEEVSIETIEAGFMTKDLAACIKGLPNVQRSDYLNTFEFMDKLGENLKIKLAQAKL

Structure (SMILES)	R value (isoTOP-ABPP ratio heavy/light) for IA-labeled cysteine of IDH1 (IDH1)	R value (isoTOP-ABPP ratio heavy/light) for IA-labeled cysteine of IFIT3 (IFIT3)	R value (isoTOP-ABPP ratio heavy/light) for IA-labeled cysteine of PEC1 (PEC1)	R value (isoTOP-ABPP ratio heavy/light) for IA-labeled cysteine of REEP5 (REEP5)	R value (isoTOP-ABPP ratio heavy/light) for IA-labeled cysteine of RPL24 (RPL24)	R value (isoTOP-ABPP ratio heavy/light) for IA-labeled cysteine of WDR45L (WDR45L)
CCCCCC(O)/C=C/C=O (stereo not drawn) [4-HNE, 4-Hydroxynonenal]	1.3	1.51	1.86	7.08	1.74	3.34
CCCCCCCCCCCCC/C=C/C=O [2-HD, 2-trans-hexadecenal]	1.13	1.23	1.06	1.18	1.25	1.06
CCCCC/C=C/C=C1/C(=O)C=C[C@@H]1C/C=C\CCCC(=O)O [PGJ2, 15-deoxy-Δ12,14-prostaglandin J2]	6.66	9.43	8.23	7.38	6.78	6.45
